Assays:
[1] = target: T1, wild-type LRKK2 (Mus musculus, UniProt Q5S006); test: LRRK2 immunoblot, phosphorylation of Ser935, NIH-3T3 cell lysates; assay type: cell-based; settings: FIG. 1
T1 construct: endogenous in cells; host or cells: NIH-3T3
Experimental: Cell lysates were extracted from the NIH-3T3 cell pellet using lysis buffer (40 mM Tris-HCl pH 8.0, 120 mM NaCl, 0.10% Nonidet™-P40) supplemented with protease inhibitors. Proteins in whole-cell lysates were separated by SDS-PAGE and transferred to an Amersham™ nitrocellulose membrane (Amersham, UK). Nitrocellulose membranes were blocked with 5% skim milk in phosphate-buffered saline containing Tween 20 and incubated with primary antibodies overnight at 4° C. The blots were then incubated with the appropriate horseradish peroxidase (HRP)-conjugated secondary antibodies and proteins were visualized by enhanced chemiluminescence, according to the manufacturer's protocol (Amersham™ Western blotting). Secondary antibodies, anti-rabbit IgG-HRP were purchased from Cell Signaling technology. Immunoblot film were scanned on a LAS500 scanner, and images were managed with Adobe Photoshop

[2] = target: human LRRK2 kinase (Homo sapiens, UniProt Q5S007); settings: LRRK2, ADP-Glo, ATP 10 μM, 60 minutes at 25° C.
Sequence of human LRRK2 kinase (Q5S007 whole entry): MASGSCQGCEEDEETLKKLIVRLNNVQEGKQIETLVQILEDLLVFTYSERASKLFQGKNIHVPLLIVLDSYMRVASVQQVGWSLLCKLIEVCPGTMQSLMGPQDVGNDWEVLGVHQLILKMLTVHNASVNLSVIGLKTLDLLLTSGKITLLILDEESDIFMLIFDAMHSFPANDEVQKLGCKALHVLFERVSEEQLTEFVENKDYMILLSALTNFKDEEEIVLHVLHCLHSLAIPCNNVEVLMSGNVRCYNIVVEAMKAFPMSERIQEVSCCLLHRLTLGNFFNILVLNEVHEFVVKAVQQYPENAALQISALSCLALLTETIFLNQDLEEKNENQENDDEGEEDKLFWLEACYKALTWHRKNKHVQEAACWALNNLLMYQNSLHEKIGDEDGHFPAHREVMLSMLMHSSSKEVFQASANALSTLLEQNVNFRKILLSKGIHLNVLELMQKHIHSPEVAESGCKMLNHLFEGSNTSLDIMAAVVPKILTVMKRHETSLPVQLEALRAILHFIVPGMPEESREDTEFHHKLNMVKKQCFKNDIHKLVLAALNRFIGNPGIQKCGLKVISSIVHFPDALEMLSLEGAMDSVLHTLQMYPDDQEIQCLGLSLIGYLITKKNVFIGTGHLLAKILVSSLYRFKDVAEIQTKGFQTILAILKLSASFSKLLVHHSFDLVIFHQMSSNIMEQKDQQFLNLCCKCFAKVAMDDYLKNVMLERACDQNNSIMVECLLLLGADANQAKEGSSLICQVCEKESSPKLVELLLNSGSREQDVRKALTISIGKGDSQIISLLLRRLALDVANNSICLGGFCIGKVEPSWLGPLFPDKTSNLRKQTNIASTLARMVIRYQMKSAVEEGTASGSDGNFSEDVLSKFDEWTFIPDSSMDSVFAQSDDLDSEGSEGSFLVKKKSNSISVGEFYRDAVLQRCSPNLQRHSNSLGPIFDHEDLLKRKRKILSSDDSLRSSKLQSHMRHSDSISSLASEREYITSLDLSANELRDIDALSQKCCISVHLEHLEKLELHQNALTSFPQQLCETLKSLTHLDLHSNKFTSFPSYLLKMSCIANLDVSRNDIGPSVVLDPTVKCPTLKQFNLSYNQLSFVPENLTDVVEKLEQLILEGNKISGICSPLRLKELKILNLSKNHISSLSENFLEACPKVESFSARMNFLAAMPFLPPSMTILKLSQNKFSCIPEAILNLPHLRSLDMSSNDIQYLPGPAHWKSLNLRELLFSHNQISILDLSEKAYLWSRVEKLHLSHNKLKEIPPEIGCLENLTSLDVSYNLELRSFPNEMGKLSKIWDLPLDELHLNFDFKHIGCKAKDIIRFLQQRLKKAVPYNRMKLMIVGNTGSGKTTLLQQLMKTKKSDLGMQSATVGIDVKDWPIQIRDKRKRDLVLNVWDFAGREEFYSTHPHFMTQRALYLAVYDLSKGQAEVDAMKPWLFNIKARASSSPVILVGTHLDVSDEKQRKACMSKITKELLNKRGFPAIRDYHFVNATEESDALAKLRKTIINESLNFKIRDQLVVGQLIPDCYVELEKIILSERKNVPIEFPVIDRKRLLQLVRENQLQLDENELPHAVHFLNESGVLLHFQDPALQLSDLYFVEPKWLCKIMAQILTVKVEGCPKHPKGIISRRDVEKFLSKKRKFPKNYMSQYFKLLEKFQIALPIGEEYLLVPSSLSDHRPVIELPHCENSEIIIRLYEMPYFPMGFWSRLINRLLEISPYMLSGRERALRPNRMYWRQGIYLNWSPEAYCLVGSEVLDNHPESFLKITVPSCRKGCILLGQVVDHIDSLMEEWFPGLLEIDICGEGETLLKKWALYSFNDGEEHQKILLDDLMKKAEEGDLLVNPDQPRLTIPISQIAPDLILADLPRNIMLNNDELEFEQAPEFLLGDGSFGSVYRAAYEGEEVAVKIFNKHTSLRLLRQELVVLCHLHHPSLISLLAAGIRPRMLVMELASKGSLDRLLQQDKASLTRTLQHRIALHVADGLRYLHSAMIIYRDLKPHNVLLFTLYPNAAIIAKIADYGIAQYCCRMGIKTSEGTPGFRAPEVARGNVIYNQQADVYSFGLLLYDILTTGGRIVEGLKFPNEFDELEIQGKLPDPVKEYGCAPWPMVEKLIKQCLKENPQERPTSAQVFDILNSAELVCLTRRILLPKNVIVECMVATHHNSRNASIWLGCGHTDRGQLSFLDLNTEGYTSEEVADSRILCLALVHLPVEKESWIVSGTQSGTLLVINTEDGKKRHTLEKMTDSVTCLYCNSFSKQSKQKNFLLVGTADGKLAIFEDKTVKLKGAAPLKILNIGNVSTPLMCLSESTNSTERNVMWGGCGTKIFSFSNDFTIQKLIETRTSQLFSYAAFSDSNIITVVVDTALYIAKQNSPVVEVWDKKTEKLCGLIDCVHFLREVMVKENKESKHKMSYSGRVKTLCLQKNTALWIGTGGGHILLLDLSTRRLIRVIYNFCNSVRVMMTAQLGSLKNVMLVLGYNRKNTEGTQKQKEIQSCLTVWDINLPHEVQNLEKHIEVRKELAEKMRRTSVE

T1 sequence (Q5S006 whole entry): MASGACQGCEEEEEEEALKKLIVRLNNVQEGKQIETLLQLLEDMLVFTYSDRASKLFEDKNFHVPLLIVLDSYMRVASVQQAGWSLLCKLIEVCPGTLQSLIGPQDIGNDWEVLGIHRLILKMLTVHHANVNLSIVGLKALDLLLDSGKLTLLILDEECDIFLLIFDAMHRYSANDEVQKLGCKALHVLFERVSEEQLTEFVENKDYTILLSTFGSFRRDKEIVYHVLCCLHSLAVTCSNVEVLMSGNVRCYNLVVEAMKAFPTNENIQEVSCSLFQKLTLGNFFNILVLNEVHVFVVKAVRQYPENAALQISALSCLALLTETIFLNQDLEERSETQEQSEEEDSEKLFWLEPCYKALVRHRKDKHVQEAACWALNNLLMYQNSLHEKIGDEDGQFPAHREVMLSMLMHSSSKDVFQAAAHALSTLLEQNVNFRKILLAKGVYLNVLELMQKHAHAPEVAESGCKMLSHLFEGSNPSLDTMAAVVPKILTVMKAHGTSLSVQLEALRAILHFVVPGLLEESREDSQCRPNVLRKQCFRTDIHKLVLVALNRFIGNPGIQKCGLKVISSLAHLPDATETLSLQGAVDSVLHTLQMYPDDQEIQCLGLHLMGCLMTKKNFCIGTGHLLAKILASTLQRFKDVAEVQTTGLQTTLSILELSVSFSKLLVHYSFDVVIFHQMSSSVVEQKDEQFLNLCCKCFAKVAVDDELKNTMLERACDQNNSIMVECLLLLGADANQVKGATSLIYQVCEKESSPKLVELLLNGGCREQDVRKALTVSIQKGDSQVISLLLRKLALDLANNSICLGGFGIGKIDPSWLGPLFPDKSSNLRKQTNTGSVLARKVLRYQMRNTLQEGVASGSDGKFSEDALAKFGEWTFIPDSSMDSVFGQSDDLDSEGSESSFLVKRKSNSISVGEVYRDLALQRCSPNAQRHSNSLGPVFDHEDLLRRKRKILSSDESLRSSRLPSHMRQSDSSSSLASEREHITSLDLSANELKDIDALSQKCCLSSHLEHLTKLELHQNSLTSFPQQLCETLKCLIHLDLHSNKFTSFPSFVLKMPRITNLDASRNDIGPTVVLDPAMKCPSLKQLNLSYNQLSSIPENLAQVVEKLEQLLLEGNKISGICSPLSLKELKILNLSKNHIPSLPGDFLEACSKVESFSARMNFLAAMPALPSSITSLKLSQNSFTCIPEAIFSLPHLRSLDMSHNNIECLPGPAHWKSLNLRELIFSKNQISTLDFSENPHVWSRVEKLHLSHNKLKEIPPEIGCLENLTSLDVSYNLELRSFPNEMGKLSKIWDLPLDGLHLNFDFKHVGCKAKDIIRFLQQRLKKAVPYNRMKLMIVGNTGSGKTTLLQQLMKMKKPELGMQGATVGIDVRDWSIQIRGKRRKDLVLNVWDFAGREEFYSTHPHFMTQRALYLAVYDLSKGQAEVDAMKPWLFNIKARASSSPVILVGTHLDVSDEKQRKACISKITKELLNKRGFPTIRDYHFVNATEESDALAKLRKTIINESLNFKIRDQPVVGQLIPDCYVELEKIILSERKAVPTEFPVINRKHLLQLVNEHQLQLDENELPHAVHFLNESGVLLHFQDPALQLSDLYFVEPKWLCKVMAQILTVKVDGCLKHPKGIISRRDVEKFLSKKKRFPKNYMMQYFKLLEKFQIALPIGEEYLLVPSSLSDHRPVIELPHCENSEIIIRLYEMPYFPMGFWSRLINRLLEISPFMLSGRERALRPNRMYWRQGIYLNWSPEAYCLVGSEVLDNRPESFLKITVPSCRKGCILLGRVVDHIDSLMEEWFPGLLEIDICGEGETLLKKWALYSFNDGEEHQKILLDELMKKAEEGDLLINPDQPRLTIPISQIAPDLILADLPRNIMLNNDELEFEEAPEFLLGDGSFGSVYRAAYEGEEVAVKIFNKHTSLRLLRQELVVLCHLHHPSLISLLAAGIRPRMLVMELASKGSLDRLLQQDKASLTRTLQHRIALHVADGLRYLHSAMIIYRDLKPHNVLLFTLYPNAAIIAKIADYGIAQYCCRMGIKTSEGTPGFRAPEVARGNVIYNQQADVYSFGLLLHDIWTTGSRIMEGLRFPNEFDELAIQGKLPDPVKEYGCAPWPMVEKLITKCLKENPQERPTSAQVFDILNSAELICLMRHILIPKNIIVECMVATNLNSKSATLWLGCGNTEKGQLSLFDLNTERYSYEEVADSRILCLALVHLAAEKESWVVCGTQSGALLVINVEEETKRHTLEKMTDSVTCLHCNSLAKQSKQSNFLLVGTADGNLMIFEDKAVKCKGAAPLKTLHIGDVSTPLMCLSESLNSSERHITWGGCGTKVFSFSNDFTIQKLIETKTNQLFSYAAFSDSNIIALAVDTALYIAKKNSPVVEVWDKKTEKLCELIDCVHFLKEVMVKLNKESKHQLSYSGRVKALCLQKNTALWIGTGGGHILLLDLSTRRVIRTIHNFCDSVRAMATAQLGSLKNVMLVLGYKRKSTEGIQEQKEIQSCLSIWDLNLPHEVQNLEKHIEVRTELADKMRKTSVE

Row | IC50 [2] | Structure (SMILES) | inhibition of the phosphorylation of Ser935 in wild-type LRKK2 [1]
1 | < 0.01 µM | CCCNc1nc(Nc2ccc(C(=O)N3CCC(N4CCOCC4)CC3)c3c2OCCO3)nc2[nH]cc(Cl)c12 [Compound 2, (8-((5-chloro-4-(propylamino)-7H-pyrrolo[2,3-d]pyrimidin-2-yl)amino)-2,3-dihydrobenzo[b][1,4]dioxin-5-yl)(4-morpholinopiperidin-1-yl)methanone] | inhibited the phosphorylation of Ser935 in wild-type LRKK2 with potency similar to known LRRK2 inhibitor LRRK2-IN-1
2 | – | COc1cc(C(=O)N2CCC(N3CCN(C)CC3)CC2)ccc1Nc1ncc2c(n1)N(C)c1ccccc1C(=O)N2C [LRRK2-IN-1, reference compound] | inhibition of the phosphorylation of Ser935
3 | 0.1 to 1 µM | CCCNc1nc(Nc2ccc(S(=O)(=O)N3CCC(N4CCOCC4)CC3)cc2OC)nc2[nH]cc(Cl)c12 [Compound 19, 5-chloro-N2-(2-methoxy-4-((4-morpholinopiperidin-1-yl)sulfonyl)phenyl)-N4-propyl-7H-pyrrolo[2,3-d]pyrimidine-2,4-diamine] | inhibited the phosphorylation of Ser935 in wild-type LRKK2 with potency similar to known LRRK2 inhibitor LRRK2-IN-1
4 | 0.01 to 0.1 µM | COc1cc(P2(=O)CCN(C3CCOCC3)CC2)ccc1Nc1nc(NC2CCCC2)c2c(Cl)c[nH]c2n1 [Compound 79] | –

Source: patent US12479847B2 (DANA-FARBER CANCER INSTITUTE, INC., priority 2019, dated 2025)
